# Test results taken from article PMC5218480 (PLoS ONE, 2017).
# System: MV-4-11 cells
# Assay: Gene expression microarray analysis (Affymetrix PrimeView) and GSEA
# Type: cell-based, human
# Parameters: RFU PODN (11730768_x_at) / Fold change /veh PODN (11730768_x_at) / RFU LINC00158 (11744669_a_at) / Fold change /veh LINC00158 (11744669_a_at) / RFU DUSP10 (11751237_a_at) / Fold change /veh DUSP10 (11751237_a_at) / RFU ID3 (11757404_x_at) / Fold change /veh ID3 (11757404_x_at) / RFU PLEKHG5 (11737974_s_at) / Fold change /veh PLEKHG5 (11737974_s_at) / RFU LRRC4B (11730491_at) / Fold change /veh LRRC4B (11730491_at) / RFU GIMAP4 (11747438_a_at) / Fold change /veh GIMAP4 (11747438_a_at) / RFU KRT8 (11758183_x_at) / Fold change /veh KRT8 (11758183_x_at) / RFU CNN1 (11734310_a_at) / Fold change /veh CNN1 (11734310_a_at) / RFU VPS37D (11726825_at) / Fold change /veh VPS37D (11726825_at) / RFU C10orf10 (11716522_x_at) / Fold change /veh C10orf10 (11716522_x_at) / RFU KIR2DL2 /// KIR2DL4 /// KIR2DL5A /// KIR2DL5B /// KIR2DS1 /// KIR2DS2 /// KIR2DS3 /// KIR2DS4 /// KIR3DL3 /// KIR3DL3 /// KIR3DS1 (11738374_at) / Fold change /veh KIR2DL2 /// KIR2DL4 /// KIR2DL5A /// KIR2DL5B /// KIR2DS1 /// KIR2DS2 /// KIR2DS3 /// KIR2DS4 /// KIR3DL3 /// KIR3DL3 /// KIR3DS1 (11738374_at) / RFU C1QL1 (11718748_at) / Fold change /veh C1QL1 (11718748_at) / RFU TMPRSS4 (11747572_a_at) / Fold change /veh TMPRSS4 (11747572_a_at) / RFU HAMP (11756126_x_at) / Fold change /veh HAMP (11756126_x_at) / RFU RNFT2 (11725882_a_at) / Fold change /veh RNFT2 (11725882_a_at) / RFU NR4A2 (11747474_a_at) / Fold change /veh NR4A2 (11747474_a_at) / RFU ABCC12 (11746883_a_at) / Fold change /veh ABCC12 (11746883_a_at) / RFU TMEM136 (11760407_x_at) / Fold change /veh TMEM136 (11760407_x_at) / RFU CLDN22 /// WWC2 (11732394_at) / Fold change /veh CLDN22 /// WWC2 (11732394_at) / RFU HLA-DPB1 (11760878_x_at) / Fold change /veh HLA-DPB1 (11760878_x_at) / RFU SPINT1 (11716480_a_at) / Fold change /veh SPINT1 (11716480_a_at) / RFU GAP43 (11754022_s_at) / Fold change /veh GAP43 (11754022_s_at) / RFU A4GNT (11735810_at) / Fold change /veh A4GNT (11735810_at) / RFU PRB3 (11715151_x_at) / Fold change /veh PRB3 (11715151_x_at) / RFU TUBB4B (11761932_at) / Fold change /veh TUBB4B (11761932_at) / RFU CAPN14 (11732068_a_at) / Fold change /veh CAPN14 (11732068_a_at) / RFU TMCC2 (11721928_a_at) / Fold change /veh TMCC2 (11721928_a_at) / RFU IRGQ (11745062_a_at) / Fold change /veh IRGQ (11745062_a_at) / RFU FAM174B (11720279_a_at) / Fold change /veh FAM174B (11720279_a_at) / RFU TMPRSS4 (11748680_a_at) / Fold change /veh TMPRSS4 (11748680_a_at) / RFU FAM212B (11763350_a_at) / Fold change /veh FAM212B (11763350_a_at) / RFU PLEKHG5 (11743358_a_at) / Fold change /veh PLEKHG5 (11743358_a_at) / RFU ZSCAN30 (11745921_a_at) / Fold change /veh ZSCAN30 (11745921_a_at) / RFU CMKLR1 (11741424_a_at) / Fold change /veh CMKLR1 (11741424_a_at) / RFU LOC101060620 /// MAPK8IP1 (11723275_at) / Fold change /veh LOC101060620 /// MAPK8IP1 (11723275_at) / RFU SPTSSB (11747773_x_at) / Fold change /veh SPTSSB (11747773_x_at) / RFU PRSS12 (11739890_at) / Fold change /veh PRSS12 (11739890_at) / RFU BIN1 (11741810_x_at) / Fold change /veh BIN1 (11741810_x_at) / RFU WNT11 (11732464_a_at) / Fold change /veh WNT11 (11732464_a_at) / RFU C10orf10 (11716521_a_at) / Fold change /veh C10orf10 (11716521_a_at) / RFU C5orf56 (11738089_at) / Fold change /veh C5orf56 (11738089_at) / RFU CYB561 (11721691_x_at) / Fold change /veh CYB561 (11721691_x_at) / RFU ANKRD19P (11752326_a_at) / Fold change /veh ANKRD19P (11752326_a_at) / RFU OR2T12 /// OR2T33 /// OR2T8 (11738714_s_at) / Fold change /veh OR2T12 /// OR2T33 /// OR2T8 (11738714_s_at) / RFU VCAN (11748164_a_at) / Fold change /veh VCAN (11748164_a_at) / RFU JSRP1 (11732532_at) / Fold change /veh JSRP1 (11732532_at) / RFU KRTAP10-11 (11738290_x_at) / Fold change /veh KRTAP10-11 (11738290_x_at) / RFU MYO3A (11730013_a_at) / Fold change /veh MYO3A (11730013_a_at) / RFU EBF3 (11725865_a_at) / Fold change /veh EBF3 (11725865_a_at) / RFU CAMK2N1 (11719241_x_at) / Fold change /veh CAMK2N1 (11719241_x_at) / RFU C5orf56 (11738088_a_at) / Fold change /veh C5orf56 (11738088_a_at) / RFU OLFML3 (11715873_a_at) / Fold change /veh OLFML3 (11715873_a_at) / RFU LOC100653217 /// NTM (11731650_a_at) / Fold change /veh LOC100653217 /// NTM (11731650_a_at) / RFU MAPK11 (11762145_a_at) / Fold change /veh MAPK11 (11762145_a_at) / RFU FIZ1 (11724087_x_at) / Fold change /veh FIZ1 (11724087_x_at) / RFU OASL (11726364_x_at) / Fold change /veh OASL (11726364_x_at) / RFU SOX15 (11748057_x_at) / Fold change /veh SOX15 (11748057_x_at) / RFU CD79A (11719716_a_at) / Fold change /veh CD79A (11719716_a_at) / RFU HIST1H1D (11736915_at) / Fold change /veh HIST1H1D (11736915_at) / RFU CASKIN2 (11723855_a_at) / Fold change /veh CASKIN2 (11723855_a_at) / RFU LOC730098 (11760151_x_at) / Fold change /veh LOC730098 (11760151_x_at) / RFU OR4N2 (11742367_at) / Fold change /veh OR4N2 (11742367_at) / RFU PRRT2 (11749266_a_at) / Fold change /veh PRRT2 (11749266_a_at) / RFU SNX32 (11753110_a_at) / Fold change /veh SNX32 (11753110_a_at) / RFU CDHR5 (11726645_a_at) / Fold change /veh CDHR5 (11726645_a_at) / RFU RCAN1 (11760418_a_at) / Fold change /veh RCAN1 (11760418_a_at) / RFU FAM167A (11723789_a_at) / Fold change /veh FAM167A (11723789_a_at) / RFU FAM26E (11764081_at) / Fold change /veh FAM26E (11764081_at) / RFU ISYNA1 (11749810_s_at) / Fold change /veh ISYNA1 (11749810_s_at) / RFU ACY1 (11761880_at) / Fold change /veh ACY1 (11761880_at) / RFU 11764098_at / Fold change /veh 11764098_at / RFU SAMD14 (11745864_x_at) / Fold change /veh SAMD14 (11745864_x_at) / RFU NPB (11741838_a_at) / Fold change /veh NPB (11741838_a_at) / RFU TMPRSS6 (11731388_a_at) / Fold change /veh TMPRSS6 (11731388_a_at) / RFU KRTAP10-2 (11738614_at) / Fold change /veh KRTAP10-2 (11738614_at) / RFU ARHGAP8 /// PRR5-ARHGAP8 (11727945_x_at) / Fold change /veh ARHGAP8 /// PRR5-ARHGAP8 (11727945_x_at) / RFU KRTAP5-7 /// NADSYN1 (11734609_at) / Fold change /veh KRTAP5-7 /// NADSYN1 (11734609_at) / RFU RASL12 (11751679_a_at) / Fold change /veh RASL12 (11751679_a_at) / RFU CDKN2B (11736163_a_at) / Fold change /veh CDKN2B (11736163_a_at) / RFU PRF1 (11729649_at) / Fold change /veh PRF1 (11729649_at) / RFU, ZNF638 /// ZNF638-IT1 / Fold change vs veh, ZNF638 /// ZNF638-IT1 / RFU, PANK3 / Fold change vs veh, PANK3 / RFU, SH3YL1 / Fold change vs veh, SH3YL1 / RFU, ZEB2 / Fold change vs veh, ZEB2 / RFU, NRIP1 / Fold change vs veh, NRIP1 / RFU, PTTG1IP / Fold change vs veh, PTTG1IP / RFU, CAPN2 / Fold change vs veh, CAPN2 / RFU, MED14 / Fold change vs veh, MED14 / RFU, SNORA58 / Fold change vs veh, SNORA58 / RFU, C1orf63 / Fold change vs veh, C1orf63 / RFU, LRRFIP1 / Fold change vs veh, LRRFIP1 / RFU, NDUFAF7 / Fold change vs veh, NDUFAF7 / RFU, SLC12A2 / Fold change vs veh, SLC12A2 / RFU, IBTK / Fold change vs veh, IBTK / RFU, ESF1 / Fold change vs veh, ESF1 / Fold change vs veh, TMEM50B / RFU, TAOK1 / Fold change vs veh, TAOK1 / RFU, ACBD3 / Fold change vs veh, ACBD3 / RFU, TMA16 / Fold change vs veh, TMA16 / RFU, RWDD3 / Fold change vs veh, RWDD3 / RFU, BCAT1 / Fold change vs veh, BCAT1 / RFU, EDEM3 / Fold change vs veh, EDEM3 / RFU, TMEM33 / Fold change vs veh, TMEM33 / RFU, WDR75 / Fold change vs veh, WDR75 / RFU, AHCTF1 / Fold change vs veh, AHCTF1 / RFU, TFRC / Fold change vs veh, TFRC / RFU, ZDHHC17 / Fold change vs veh, ZDHHC17 / RFU, NOM1 / Fold change vs veh, NOM1 / RFU, ARL8B / Fold change vs veh, ARL8B / RFU, ZBTB11 / Fold change vs veh, ZBTB11 / RFU, TAMM41 / Fold change vs veh, TAMM41 / RFU, KIAA1704 /// LOC100996395 / Fold change vs veh, KIAA1704 /// LOC100996395 / RFU, ING1 / Fold change vs veh, ING1 / RFU, TRMT61B / Fold change vs veh, TRMT61B / RFU, FUBP3 / Fold change vs veh, FUBP3 / RFU, TP53 / Fold change vs veh, TP53 / RFU, TNKS2 / Fold change vs veh, TNKS2 / RFU, ZFP14 / Fold change vs veh, ZFP14 / RFU, ACTR2 / Fold change vs veh, ACTR2 / RFU, PPP3R1 / Fold change vs veh, PPP3R1 / RFU, PIK3R1 / Fold change vs veh, PIK3R1 / RFU, HNRNPA1 / Fold change vs veh, HNRNPA1 / RFU, RNF170 / Fold change vs veh, RNF170 / RFU, ZNF28 / Fold change vs veh, ZNF28 / RFU, RNGTT / Fold change vs veh, RNGTT / RFU, OGT / Fold change vs veh, OGT / RFU, BRD1 / Fold change vs veh, BRD1 / RFU, MARS / Fold change vs veh, MARS / RFU, ZNF655 / Fold change vs veh, ZNF655 / RFU, FAHD1 / Fold change vs veh, FAHD1 / RFU, BDP1 / Fold change vs veh, BDP1 / RFU, LRRCC1 / Fold change vs veh, LRRCC1 / RFU, ARID1A / Fold change vs veh, ARID1A / RFU, ZNF146 / Fold change vs veh, ZNF146 / RFU, ZNF330 / Fold change vs veh, ZNF330 / RFU, GPN3 / Fold change vs veh, GPN3 / RFU, C9orf123 / Fold change vs veh, C9orf123 / RFU, N4BP2L2 / Fold change vs veh, N4BP2L2 / RFU, ARFIP1 / Fold change vs veh, ARFIP1 / RFU, FAM179B / Fold change vs veh, FAM179B / RFU, BCL10 / Fold change vs veh, BCL10 / RFU, UHRF1BP1L / Fold change vs veh, UHRF1BP1L / RFU, BET1 / Fold change vs veh, BET1 / RFU, CNOT2 / Fold change vs veh, CNOT2 / RFU, ZNF268 / Fold change vs veh, ZNF268 / Fold change vs veh, ZNF507 / RFU, DGCR2 / Fold change vs veh, DGCR2 / RFU, WDSUB1 / Fold change vs veh, WDSUB1 / Fold change vs veh, HSP90B1 /// MIR3652 / RFU, ADSS / Fold change vs veh, ADSS / RFU, GK / Fold change vs veh, GK / RFU, ZNF148 / Fold change vs veh, ZNF148 / RFU, TAF9 / Fold change vs veh, TAF9 / RFU, SLC1A5 / Fold change vs veh, SLC1A5 / RFU, SLMO2 / Fold change vs veh, SLMO2 / RFU, ABCC4 / Fold change vs veh, ABCC4 / RFU, LOC101060439 /// RAP1B / Fold change vs veh, LOC101060439 /// RAP1B / RFU, RFX7 / Fold change vs veh, RFX7 / RFU, GTPBP10 / Fold change vs veh, GTPBP10 / RFU, CNEP1R1 / Fold change vs veh, CNEP1R1 / RFU, BIVM-ERCC5 /// ERCC5 / Fold change vs veh, BIVM-ERCC5 /// ERCC5 / RFU, ILF3 / Fold change vs veh, ILF3 / RFU 11762660_at / Fold change /veh 11762660_at / RFU VCAN (11757783_s_at) / Fold change /veh VCAN (11757783_s_at) / RFU DDX43 (11728927_at) / Fold change /veh DDX43 (11728927_at) / RFU KRT8 (11758188_x_at) / Fold change /veh KRT8 (11758188_x_at) / RFU NKD1 (11759106_at) / Fold change /veh NKD1 (11759106_at) / RFU SRD5A1 (11742802_a_at) / Fold change /veh SRD5A1 (11742802_a_at) / RFU TPSAB1 /// TPSB2 (11721975_s_at) / Fold change /veh TPSAB1 /// TPSB2 (11721975_s_at) / RFU GSTM3 (11746129_a_at) / Fold change /veh GSTM3 (11746129_a_at) / RFU IL23R (11737362_x_at) / Fold change /veh IL23R (11737362_x_at) / RFU TMEM51 (11727254_a_at) / Fold change /veh TMEM51 (11727254_a_at) / RFU PIWIL2 (11732686_x_at) / Fold change /veh PIWIL2 (11732686_x_at) / RFU ORM1 (11744905_x_at) / Fold change /veh ORM1 (11744905_x_at) / RFU CCDC152 (11743942_at) / Fold change /veh CCDC152 (11743942_at) / RFU ECM1 (11717891_a_at) / Fold change /veh ECM1 (11717891_a_at) / RFU IL23R (11748794_a_at) / Fold change /veh IL23R (11748794_a_at) / RFU TNFAIP8L3 (11732012_x_at) / Fold change /veh TNFAIP8L3 (11732012_x_at) / RFU MBOAT4 (11741988_at) / Fold change /veh MBOAT4 (11741988_at) / RFU 11764193_at / Fold change /veh 11764193_at / RFU TMEM53 (11763286_at) / Fold change /veh TMEM53 (11763286_at) / RFU MAGEB2 (11727129_at) / Fold change /veh MAGEB2 (11727129_at) / RFU TMEM200A (11744735_a_at) / Fold change /veh TMEM200A (11744735_a_at) / RFU CCDC152 (11751479_a_at) / Fold change /veh CCDC152 (11751479_a_at) / RFU FAM211A (11726209_a_at) / Fold change /veh FAM211A (11726209_a_at) / RFU RGS16 (11746705_a_at) / Fold change /veh RGS16 (11746705_a_at) / RFU VCAN (11755009_s_at) / Fold change /veh VCAN (11755009_s_at) / RFU RHOB (11743442_s_at) / Fold change /veh RHOB (11743442_s_at) / RFU RGS16 (11720943_a_at) / Fold change /veh RGS16 (11720943_a_at) / RFU RGS16 (11720944_at) / Fold change /veh RGS16 (11720944_at) / RFU, VPS4B / Fold change vs veh, VPS4B / RFU, CREB1 / Fold change vs veh, CREB1 / RFU, DNAJC13 / Fold change vs veh, DNAJC13 / RFU, GNAQ / Fold change vs veh, GNAQ / RFU, CDK5R1 / Fold change vs veh, CDK5R1 / RFU, ZRANB3 / Fold change vs veh, ZRANB3 / RFU, CUL4A / Fold change vs veh, CUL4A / RFU, CCNY / Fold change vs veh, CCNY / RFU, UFL1 / Fold change vs veh, UFL1 / RFU, COG3 / Fold change vs veh, COG3 / RFU, DIAPH2 / Fold change vs veh, DIAPH2 / RFU, SKA2 / Fold change vs veh, SKA2 / RFU, AFF3 / Fold change vs veh, AFF3 / RFU, LMF1 / Fold change vs veh, LMF1 / RFU, IPO11 / Fold change vs veh, IPO11 / RFU, DFFB / Fold change vs veh, DFFB / RFU, FOXP1 / Fold change vs veh, FOXP1 / RFU, CARD8 / Fold change vs veh, CARD8 / RFU, STRN3 / Fold change vs veh, STRN3 / RFU, ADK / Fold change vs veh, ADK / RFU, RASSF2 / Fold change vs veh, RASSF2 / RFU, WIPF1 / Fold change vs veh, WIPF1 / RFU, LARP1B / Fold change vs veh, LARP1B / RFU, RASA1 / Fold change vs veh, RASA1 / RFU, RB1 / Fold change vs veh, RB1 / RFU, PPFIA1 / Fold change vs veh, PPFIA1 / RFU, MAT2A / Fold change vs veh, MAT2A / RFU, CCT5 / Fold change vs veh, CCT5 / RFU, WDR92 / Fold change vs veh, WDR92 / RFU, CUX1 / Fold change vs veh, CUX1 / RFU, TTC7A / Fold change vs veh, TTC7A / RFU, TMEM135 / Fold change vs veh, TMEM135 / RFU, DEPTOR / Fold change vs veh, DEPTOR / RFU, CPM / Fold change vs veh, CPM / RFU, DNAJB6 / Fold change vs veh, DNAJB6 / RFU, CACNA2D3 / Fold change vs veh, CACNA2D3 / RFU, DTX4 / Fold change vs veh, DTX4 / RFU, TFCP2 / Fold change vs veh, TFCP2 / RFU, GMCL1 /// GMCL1P1 / Fold change vs veh, GMCL1 /// GMCL1P1 / RFU, AEBP2 / Fold change vs veh, AEBP2 / RFU, SNHG1 /// SNORD22 /// SNORD25 /// SNORD26 /// SNORD27 /// SNORD28 /// SNORD29 /// SNORD31 / Fold change vs veh, SNHG1 /// SNORD22 /// SNORD25 /// SNORD26 /// SNORD27 /// SNORD28 /// SNORD29 /// SNORD31 / Fold change (Aza/veh), C12orf56 (ProbeSet 11735607_a_at) / Fold change (ACY-1035/veh), C12orf56 (ProbeSet 11735607_a_at) / Fold change (Aza/veh), FGFR1OP (ProbeSet 11751329_s_at) / Fold change (ACY-1035/veh), FGFR1OP (ProbeSet 11751329_s_at) / Fold change (Aza/veh), VPS36 (ProbeSet 11739960_a_at) / Fold change (ACY-1035/veh), VPS36 (ProbeSet 11739960_a_at) / RFU SYPL1 (11715823_x_at) / Fold change /veh SYPL1 (11715823_x_at) / RFU IGFBP7 (11715501_s_at) / Fold change /veh IGFBP7 (11715501_s_at) / RFU REEP3 (11722064_at) / Fold change /veh REEP3 (11722064_at) / RFU IGLL1 (11728026_x_at) / Fold change /veh IGLL1 (11728026_x_at): dose or concentration left out as unconfirmed
# Conditions: MV-4-11 cells, 48 hours
smiles,measurement,value
Nc1ccc(-c2cccs2)cc1NC(=O)c1ccc2c(c1)cc(C1CC1)n2CCN1CCOCC1 [ACY-1035],RFU 11762660_at,11.56 RFU
